Among the data in ChEMBL document CHEMBL1150514, “Synthesis and HIV-1 reverse transcriptase inhibition properties of two new methylenephosphonate analogues of 3-azido-3-deoxythymidine-5-triphosphate” (Bioorg Med Chem Lett, 1995) are IC50 values, retold here.

For this test, the target named is Human immunodeficiency virus type 1 reverse transcriptase (Human immunodeficiency virus 1, UniProt Q72547). Nature of the test: Inhibitory activity against HIV-1 reverse transcriptase.
As for `Cc1cn(C2CC(N=[N+]=[N-])C(COP(=O)(O)CCCP(=O)(O)O)O2)c(=O)[nH]c1=O` (stereo not drawn), the IC50 worked out at 39 µM.

`Cc1cn(C2CC(N=[N+]=[N-])C(COP(=O)(O)CP(=O)(O)CP(=O)(O)O)O2)c(=O)[nH]c1=O` (stereo not drawn) displayed an IC50 of 48 µM.

Regarding `Cc1cn([C@H]2C[C@H](N=[N+]=[N-])[C@@H](CO[P@](=O)(O)O[P@](=O)(O)OP(=O)(O)O)O2)c(=O)[nH]c1=O` [ZIDOVUDINE TRIPHOSPHATE], the concentration for half-maximal inhibition (IC50) came out at 0.043 µM.
